Measured values as given in US20260206761A1, “HETEROARYL-TRIAZOLE COMPOUNDS AS PESTICIDES” (Bayer Aktiengesellschaft, priority 2019, published 2026).

Legend:
Format in all cases: in vivo
[1] = system: Aedes aegypti strain MONHEIM; assay: Aedes aegypti test (AEDSAE surface treatment & contact assay); conditions: 24 hours after contact, read-out: efficacy (mortality); for mortality at 4 mg/m2: surface concentration 4 mg/m^2, exposure 30 minutes; for mortality at 20 mg/m2: surface concentration 20 mg/m^2, exposure 30 minutes
How it was run: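 Compound in acetone (2 mg/ml) with 2000 ppm RME pipetted onto glazed tile and dried; adult Aedes aegypti MONHEIM exposed 30 min. Percent mortality scored 24 h after contact.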

[2] = system: adult engorged female ticks (Rhipicephalus microplus); assay: Rhipicephalus (Boophilus) microplus injection test; conditions: 168 h, egg deposition after 7 days, read-out: activity (efficacy: infertile eggs); for pest or weed control at 4 pg: application rate 4 pg/animal; for pest or weed control at 0.02 mg: application rate 20 μg/animal
How it was run: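 Efficacy is scored from egg fertility, with 100% meaning every egg infertile and 0% every egg fertile. Five engorged females per test received 1 μL DMSO solution abdominally. Eggs of unclear fertility were kept until hatching, about 42 days.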

[3] = system: adult unfed cat fleas (Ctenocephalides felis); assay: Ctenocephalides felis oral test; conditions: 48 h, read-out: activity (mortality)
How it was run: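 About 20 adult unfed fleas fed through parafilm on cattle blood containing compound (DMSO stock diluted in blood), blood held at 37 °C and fleas at room temperature. Mortality (%) scored after 2 days.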

[4] = system: larvae of the banded cucumber beetle (Diabrotica balteata); assay: Diabrotica balteata spray test; conditions: 168 h, after 7 days, read-out: activity (efficacy: seedlings grown); for pest or weed control at 100 g/ha: application rate 100 g/ha (=32 pg/well); for pest or weed control at 500 g/ha: application rate 500 g/ha (=160 pg/well)
How it was run: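 Wheat seedlings, germinated 1 day on agar (5 seeds/well), sprayed with active compound in acetone/DMF diluted in water containing 1000 ppm emulsifier, then infested with 10-20 D. balteata larvae. Efficacy (%) scored after 7 days: 100% = seedlings grown as untreated uninfested control, 0% = no seedlings grown.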

[5] = system: Rhipicephalus microplus larvae (strain Parkhurst, resistant against synthetic pyrethroids); assay: Rhipicephalus (Boophilus) microplus in-vitro contact test, larval cattle tick; conditions: after 48 hours, read-out: activity (efficacy: larvae dead or moribund); for pest or weed control at 100 g/ha: application rate 1 pg/cm^2 (=100 g/ha); for pest or weed control at 500 g/ha: application rate 5 pg/cm^2 (=500 g/ha)
How it was run: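 Acetone solutions coated onto inner walls of glass tubes by rotation (900 ppm giving 5 μg/cm^2); after evaporation, 20-50 larvae added per tube and held at 27° C., 85% relative humidity. Efficacy read after 48 h from negative geotactic behaviour; 100% = all larvae dead or moribund.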

[6] = system: green peach aphid (Myzus persicae); assay: Myzus persicae oral test; conditions: 120 h, application rate 4 ppm, after 5 days
How it was run: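 Oral uptake format: water-diluted acetone concentrate of compound is blended into IPL41 medium carrying 33%+15% sugar and offered under a parafilm membrane. Percentage of dead insects is recorded after 5 days.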

[7] = system: fall armyworm larvae (Spodoptera frugiperda); assay: Spodoptera frugiperda spray test; conditions: 168 h, read-out: activity (mortality)
How it was run: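 Compound in acetone/DMF, diluted in water with 1000 ppm alkylarylpolyglycol ether emulsifier, sprayed on maize leaf sections. Dried leaves infested with fall armyworm larvae; % mortality after 7 days (100% = all killed, 0% = none).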

[8] = system: Musca domestica strain WHO-N; assay: Musca domestica test (MUSCDO surface treatment & contact assay); conditions: 24 hours after contact, read-out: efficacy (mortality); for mortality at 4 mg/m2: surface concentration 4 mg/m^2, exposure 30 minutes; for mortality at 20 mg/m2: surface concentration 20 mg/m^2, exposure 30 minutes
Method: Musca domestica Test (MUSCDO Surface Treatment & Contact Assay)
Solvent: Aceton+2000 ppm rapeseed oil methyl ester (RME)
In order to produce a sufficient, active ingredient containing solution it is necessary to solve the test compound in the solvent-mix (acetone at 2 mg/ml/RME 2000 ppm). This solution is pipetted onto a glazed tile and after evaporation of the acetone, adult flies of the species Musca domestica strain WHO—N are placed onto the dried surface. The exposure time is 30 minutes. Mortality in percent (%) is determined 24 hours after contact of the insects to the treated surface. 100% mortality means that all tested insects are dead, whereas 0% means that no insect died.

[9] = system: adult brown dog ticks (Rhipicephalus sanguineus); assay: Rhipicephalus sanguineus in-vitro contact test, adult brown dog ticks; conditions: after 48 hours, read-out: activity (efficacy: ticks dead or moribund); for pest or weed control at 100 g/ha: application rate 1 pg/cm^2 (=100 g/ha); for pest or weed control at 5 µg/cm2, 500 g/ha: application rate 5 μg/cm^2 (=500 g/ha)
How it was run: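 Compound in acetone was coated onto inner walls of glass tubes by rotation (2 h, 30 rpm); 900 ppm gives 5 μg/cm^2. After drying, 5-10 adult ticks were enclosed per tube at room temperature; after 48 h, heat-escape test at 45-50° C scored dead/moribund ticks as % efficacy.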

[10] = system: green peach aphid (Myzus persicae); assay: Myzus persicae spray test; conditions: 120 h, after 5 days; for mortality at 500 g/ha: application rate 500 g/ha; for mortality at 100 g/ha: application rate 100 g/ha
Method: Myzus persicae—Spray Test
Solvent: 78.0 parts by weight acetone • 1.5 parts by weight dimethylformamide
Emulsifier: alkylarylpolyglycol ether
To produce a suitable preparation of active compound, 1 part by weight of active compound is mixed with the stated amount of solvents and is diluted with water, containing an emulsifier concentration of 1000 ppm, to the desired concentration. Further test concentrations are prepared by dilution with emulsifier containing water.
Chinese cabbage (Brassica pekinensis) leaf disks infected with all instars of the green peach aphid (Myzus persicae), are sprayed with a preparation of the active ingredient of the desired concentration.
After 5 days mortality in % is determined. 100% means all aphids have been killed and 0% means none of the aphids have been killed.

[11] = system: larvae of the southern green stink bug (Nezara viridula); assay: Nezara viridula spray test; conditions: 96 h, after 4 days; for mortality at 500 g/ha: application rate 500 g/ha; for mortality at 100 g/ha: application rate 100 g/ha
How it was run: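 Compound in acetone/dimethylformamide, diluted in water with 1000 ppm alkylarylpolyglycol ether emulsifier, sprayed onto barley plants carrying stink bug larvae. Mortality (%) scored after 4 days, 100% meaning all insects killed.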

[12] = system: adult cat fleas (Ctenocephalides felis); assay: Ctenocephalides felis in-vitro contact test, adult cat flea; conditions: application rate 5 μg/cm^2 (=500 g/ha), after 48 hours, read-out: activity (efficacy: fleas dead or moribund)
Method: Ctenocephalides felis—In-Vitro Contact Tests Adult Cat Flea
9 mg compound is solved in 1 mL acetone and diluted with acetone to the desired concentration. 250 μL of the test solution is filled in 25 mL glass test tubes and homogeneously distributed on the inner walls by rotation and tilting on a shaking device (2 h at 30 rpm). With a compound concentration of 900 ppm, an inner surface of 44.7 cm^2 and a homogeneous distribution, a dose of […] is achieved.
After the solvent has evaporated, each test tube is filled with 5-10 adult cat fleas (Ctenocephalides felis), closed with a perforated lid and incubated in a lying position at room temperature and relative humidity. After 48 hours efficacy is determined. The fleas are patted on the ground of the tubes and are incubated on a heating plate at 45-50° C. for at most 5 minutes. Immotile or uncoordinated moving fleas, which are not able to escape the heat by climbing upwards, are marked as dead or moribund.
An efficacy of 100% means all fleas are dead or moribund; 0% means no fleas are dead or moribund.

Row | Structure (SMILES) | mortality at 4 mg/m2 [1] | mortality at 20 mg/m2 [1] | pest or weed control at 4 pg [2] | mortality at 100 ppm [3] | pest or weed control at 100 g/ha [4] | pest or weed control at 100 g/ha [5] | pest or weed control at 500 g/ha [5] | mortality at 4 ppm [6] | mortality at 100 g/ha [7] | mortality at 4 mg/m2 [8] | pest or weed control at 100 g/ha [9] | pest or weed control at 5 µg/cm2, 500 g/ha [9] | pest or weed control at 0.02 mg [2] | mortality at 500 g/ha [10] | pest or weed control at 500 g/ha [4] | mortality at 500 g/ha [11] | pest or weed control at 5 µg/cm2 [12] | mortality at 100 g/ha [10] | mortality at 100 g/ha [11] | mortality at 20 mg/m2 [8] | other results
1 | C[C@H](NC(=O)c1cc(C2CC2)cc(C2CC2)c1)c1ncnn1-c1ccc(C#N)cn1 [II-57] | 80 to 100% | 80 to 100% | 100% | 100% | 100% | 100% | 100% | 100% | 100% | 80 to 100% | 80% | 100% | – | – | – | – | – | – | – | – | –
2 | Cc1nc([C@H](C)NC(=O)c2cc(Cl)cc(S(=O)(=O)C(F)(F)F)c2)n(-c2ccc(C#N)cn2)n1 [II-15, 3-chloro-N-{(1S)-1-[1-(5-cyanopyridin-2-yl)-3-methyl-1H-1,2,4-triazol-5-yl]ethyl}-5-[(trifluoromethyl)sulfonyl]benzamide] | – | – | 100% | 100% | 100% | 100% | 100% | 100% | 100% | – | – | – | 100% | 90% | 100% | 100% | 90% | – | – | – | mortality at 500 g/ha [7]: 100%
3 | C[C@H](NC(=O)c1cc(Cl)cc(C2(C#N)CC2)c1)c1ncnn1-c1ncc(Cl)cn1 [II-55] | – | – | 100% | 100% | 100% | 100% | 100% | 100% | 100% | – | 100% | 100% | – | – | – | – | 100% | 100% | 100% | – | –
4 | C[C@H](NC(=O)c1cc(Cl)cc(C2(C#N)CC2)c1)c1nc(C2CC2)nn1-c1ccc(C#N)cn1 [I-36] | 80 to 100% | 80 to 100% | 100% | 100% | 100% | 100% | 100% | – | 100% | 80 to 100% | 100% | 80% | – | – | – | – | – | – | – | 80 to 100% | –
5 | CCS(=O)(=O)c1cc(C(=O)N[C@@H](C)c2nc(C3CC3)nn2-c2ccc(C#N)cn2)cc(C(F)(F)F)c1 [I-19] | – | – | 100% | 90% | 80% | 100% | 100% | 100% | 100% | 80 to 100% | – | 80% | 100% | – | – | – | – | – | – | 80 to 100% | –
6 | C[C@H](NC(=O)c1cc(Cl)cc(S(=O)(=O)CC(F)(F)F)c1)c1nc(C2CC2)nn1-c1ccc(C#N)cn1 [I-13] | – | – | 100% | 90% | – | – | – | 90% | – | – | – | – | 100% | – | – | – | – | – | – | 80 to 100% | –
7 | C[C@H](NC(=O)c1cc(Br)cc(S(C)(=O)=O)c1)c1ncnn1-c1ccc(C#N)cn1 [II-41] | – | – | 100% | 100% | 100% | 100% | 100% | 100% | 100% | – | 100% | 100% | 100% | – | – | – | 100% | 100% | 100% | – | –
8 | C[C@H](NC(=O)c1cc(Cl)cc(C2(C#N)CC2)c1)c1ncnn1-c1cc(C#N)ccn1 [II-4] | 80 to 100% | 80 to 100% | 100% | 100% | 100% | – | – | 100% | 83% | – | – | – | 100% | 90% | 100% | 100% | 80% | – | 100% | – | –
9 | Cc1nc([C@H](C)NC(=O)c2cc(C(F)F)cc(C3CC3)c2)n(-c2ccc(C#N)cn2)n1 [II-61] | – | – | 100% | – | 100% | 100% | 100% | 100% | 83% | – | 100% | 100% | – | – | – | – | 100% | 90% | 100% | – | –
10 | C[C@H](NC(=O)c1cc(C#N)cc(S(C)(=O)=O)c1)c1ncnn1-c1ccc(C#N)cn1 [II-9] | 80 to 100% | – | 100% | 100% | 100% | 80% | 80% | 100% | – | – | – | – | 100% | 90% | 100% | 100% | 90% | 90% | 100% | – | mortality at 500 g/ha [7]: 100%
